Where “and” joins values, the source holds several entries; their conditions need not be identical. Equal values may be shown once.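 Tested at 5 concentrations; 48 h exposure; 96-well plates; endpoints linearly interpolated, else capped at highest concentration. GI50 marks 50% less growth.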 Calls of active or inactive are those of the source. Cut-off read from the data, not from the text of the source: active = GI50 up to about 1.1 µM and inactive = higher.
How the values were obtained:
Test in all cases: NCI-60 cell line screen, 48 h
A549 = system: A549
HT-29 = system: HT-29
MDA-N = system: MDA-N
NCI/ADR-RES = system: NCI/ADR-RES
UACC-62 = system: UACC-62
SNB-19 = system: SNB-19
NCI-H460 = system: NCI-H460
SW-620 = system: SW-620
OVCAR-8 = system: OVCAR-8
HOP-62 = system: HOP-62
ACHN = system: ACHN
OVCAR-4 = system: OVCAR-4
T47D = system: T47D
HCT-116 = system: HCT-116
SK-OV-3 = system: SK-OV-3
HCC 2998 = system: HCC 2998
K562 = system: K562
SNB-75 = system: SNB-75
KM12 = system: KM12
COLO 205 = system: COLO 205

Structure (SMILES)	GI50 (A549)	GI50 (HT-29)	GI50 (MDA-N)	GI50 (NCI/ADR-RES)	GI50 (UACC-62)	GI50 (SNB-19)	GI50 (NCI-H460)	GI50 (SW-620)	GI50 (OVCAR-8)	GI50 (HOP-62)	GI50 (ACHN)	GI50 (OVCAR-4)	GI50 (T47D)	GI50 (HCT-116)	GI50 (SK-OV-3)	GI50 (HCC 2998)	GI50 (K562)	GI50 (SNB-75)	GI50 (KM12)	GI50 (COLO 205)
CCOC(=O)[C@@H]1CCN2CN(c3ccc(OC)cc3)N=C(c3ccccc3)[C@@]12c1ccccc1	29.9 µM (inactive)	17.1 µM (inactive)	23.2 µM (inactive)	28.3 µM (inactive)	15.5 µM (inactive)	37 µM (inactive)	27.8 µM (inactive)	32.1 µM (inactive)	22.7 µM (inactive)	27.7 µM (inactive)	24.8 µM (inactive)	44 µM (inactive)	19.1 µM (inactive)	16.7 µM (inactive)	44 µM (inactive)	26.2 µM (inactive)	66.8 µM (inactive)	11.5 µM (inactive)	28.3 µM (inactive)	21.4 µM (inactive)
COc1cc2c(cc1OC)[C@H]1C(=O)c3cc4c(cc3[C@H]1N(C)C2=O)OCO4	21.8 µM (inactive)	5.27 µM (inactive)	12.1 µM (inactive)	4.81 µM (inactive)	0.879 µM (active)	6.35 µM (inactive)	0.955 µM (active)	2.44 µM (inactive)	30.4 µM (inactive)	5.07 µM (inactive)	0.682 µM (active)	> 100 µM (inactive)	> 28.2 µM (inactive)	2.22 µM (inactive)	6.7 µM (inactive)	37.6 µM (inactive)	0.869 µM (active)	8.77 µM (inactive)	36.6 µM (inactive)	6.14 µM (inactive)
COc1ccc(N2C(=O)[C@H]3[C@H]4CC(C(C)(C)C)CC[C@H]4c4c(n(C)c5ccccc45)[C@H]3C2=O)cc1 (some centres not stated)	> 100 µM (inactive)	> 100 µM (inactive)	> 100 µM (inactive)	> 100 µM (inactive)	53.5 µM (inactive)	> 100 µM (inactive)	> 10 µM (inactive)	> 100 µM (inactive)	> 100 µM (inactive)	> 5.62 µM (inactive)	> 100 µM (inactive)	> 79.6 µM (inactive)	> 100 µM (inactive)	> 100 µM (inactive)	> 100 µM (inactive)	5.62 µM (inactive)	> 95.3 µM (inactive)	> 87.7 µM (inactive)	> 10 µM (inactive)	> 100 µM (inactive)
C1C2CC3CC1CC(c1nn4c(C56CC7CC(CC(C7)C5)C6)nnc4s1)(C2)C3	> 100 µM (inactive)	> 100 µM (inactive)	> 100 µM (inactive)	> 100 µM (inactive)	> 100 µM (inactive)	> 100 µM (inactive)	> 100 µM (inactive)	> 100 µM (inactive)		> 100 µM (inactive)	> 100 µM (inactive)	> 100 µM (inactive)	> 100 µM (inactive)	> 100 µM (inactive)	> 100 µM (inactive)	> 100 µM (inactive)	> 100 µM (inactive)	> 100 µM (inactive)	> 100 µM (inactive)	> 100 µM (inactive)
COC1OC(COC(=O)NCCCCC(=O)C(F)(F)C(F)(F)C(F)(F)C(F)(F)C(F)(F)C(F)(F)C(F)(F)F)C(O)C(O)C1O (configuration not stated)	17.9 µM (inactive) and 15.6 µM (inactive)	15.8 µM (inactive) and 13.5 µM (inactive)	24 µM (inactive) and 26.4 µM (inactive)	34.5 µM (inactive) and 28.4 µM (inactive)	13.7 µM (inactive) and 14.4 µM (inactive)	17.8 µM (inactive) and 17.9 µM (inactive)	22.4 µM (inactive) and 16.8 µM (inactive)	17.1 µM (inactive) and 15.8 µM (inactive)		15 µM (inactive) and 16.2 µM (inactive)	15.6 µM (inactive) and 16.4 µM (inactive)	15 µM (inactive) and 16.7 µM (inactive)	19.6 µM (inactive) and 15.2 µM (inactive)	15 µM (inactive) and 19 µM (inactive)	14.2 µM (inactive) and 15.8 µM (inactive)	19.6 µM (inactive) and 19.5 µM (inactive)	10.6 µM (inactive) and 16 µM (inactive)	14.4 µM (inactive) and 15.8 µM (inactive)	17.5 µM (inactive) and 18.7 µM (inactive)	25.9 µM (inactive) and 21.8 µM (inactive)
COC(=N)C1(C#N)NC(c2ccsc2)C(C#N)(C#N)NC1c1ccsc1 (configuration not stated)	> 100 µM (inactive)	> 100 µM (inactive)	> 100 µM (inactive)	> 100 µM (inactive)	> 100 µM (inactive)	> 100 µM (inactive)	> 100 µM (inactive)	> 100 µM (inactive)	> 100 µM (inactive)	> 100 µM (inactive)	> 100 µM (inactive)	> 100 µM (inactive)	80.2 µM (inactive)	> 100 µM (inactive)	> 100 µM (inactive)	> 100 µM (inactive)	> 100 µM (inactive)	88.5 µM (inactive)	> 100 µM (inactive)	> 100 µM (inactive)
COC(=O)/C=C\n1c(C)cc(=O)[nH]c1=O	> 100 µM (inactive)	> 100 µM (inactive)	> 100 µM (inactive)	> 100 µM (inactive)	> 100 µM (inactive)	> 100 µM (inactive)	> 100 µM (inactive)	> 100 µM (inactive)	> 100 µM (inactive)	> 100 µM (inactive)	> 100 µM (inactive)	> 100 µM (inactive)	> 100 µM (inactive)	> 100 µM (inactive)	67.5 µM (inactive)	> 100 µM (inactive)	> 100 µM (inactive)	58.2 µM (inactive)	> 100 µM (inactive)	> 100 µM (inactive)
CC1OC(O[C@H]2CC[C@]3(C=O)[C@H]4CC[C@]5(C)[C@H](C6=CC(=O)OC6)CC[C@]5(O)[C@@H]4C=C[C@]3(O)C2)CC(O)C1O (some centres not stated)	0.113 µM (active)	0.321 µM (active)	0.332 µM (active)	0.27 µM (active)	0.434 µM (active)	0.942 µM (active)	0.118 µM (active)	0.313 µM (active)	0.346 µM (active)	0.188 µM (active)	0.106 µM (active)	0.349 µM (active)	0.524 µM (active)	0.0885 µM (active)	0.502 µM (active)	0.836 µM (active)	0.294 µM (active)	0.484 µM (active)	0.676 µM (active)	0.675 µM (active)
O=c1[nH]nc(-c2ccccc2)n1-n1cnnc1	> 100 µM (inactive)	> 100 µM (inactive)	> 100 µM (inactive)	> 100 µM (inactive)	> 100 µM (inactive)	> 100 µM (inactive)	> 100 µM (inactive)	> 100 µM (inactive)	> 100 µM (inactive)	> 100 µM (inactive)	> 100 µM (inactive)	> 100 µM (inactive)	> 100 µM (inactive)	> 100 µM (inactive)	> 100 µM (inactive)	> 100 µM (inactive)	> 100 µM (inactive)	> 100 µM (inactive)	> 100 µM (inactive)	> 100 µM (inactive)
COc1cccc2c1CCc1sc(CN3CCN(C)CC3)nc1-2	> 100 µM (inactive)	20.4 µM (inactive)	55.5 µM (inactive)	> 100 µM (inactive)	26.2 µM (inactive)	> 100 µM (inactive)	54.7 µM (inactive)	> 100 µM (inactive)	> 100 µM (inactive)	> 100 µM (inactive)	> 100 µM (inactive)	> 100 µM (inactive)	33.8 µM (inactive)	57.7 µM (inactive)	> 100 µM (inactive)	49.4 µM (inactive)	31.4 µM (inactive)	> 100 µM (inactive)	80.2 µM (inactive)	61.2 µM (inactive)
CC(=O)O[C@H]1C(=O)[C@@]2(C)C([C@H](OC(=O)c3ccccc3)[C@]3(O)C[C@H](OC(=O)[C@H](O)[C@@H](NC(=O)c4ccc(Cl)cc4)c4ccccc4)C(C)=C1C3(C)C)C1(OC(C)=O)CO[C@@H]1C[C@@H]2O (some centres not stated)	0.168 µM (active)	0.03 µM (active)	0.00665 µM (active)	14.9 µM (inactive)	0.0435 µM (active)	0.137 µM (active)	0.0668 µM (active)	0.0569 µM (active)	0.0778 µM (active)	0.474 µM (active)	6.47 µM (inactive)	7.21 µM (inactive)	0.82 µM (active)	0.0499 µM (active)	0.0986 µM (active)	< 0.01 µM (active)	> 25 µM (inactive)	0.021 µM (active)	0.0466 µM (active)	0.0607 µM (active)
c1cc(C2=NCCO2)c2ccsc2c1	> 100 µM (inactive)	> 100 µM (inactive)	> 100 µM (inactive)	> 100 µM (inactive)	> 100 µM (inactive)	> 100 µM (inactive)	> 100 µM (inactive)	> 100 µM (inactive)	> 100 µM (inactive)	> 100 µM (inactive)	> 100 µM (inactive)	> 100 µM (inactive)	> 100 µM (inactive)	> 100 µM (inactive)	> 100 µM (inactive)	> 100 µM (inactive)	> 100 µM (inactive)	0.0573 µM (active)	> 100 µM (inactive)	> 100 µM (inactive)
Oc1ccc(/C=N/NC(=S)Nc2cccnc2)nc1	38.3 µM (inactive)	5.33 µM (inactive)	13.4 µM (inactive)	2.46 µM (inactive)	6.97 µM (inactive)	22.7 µM (inactive)		4.82 µM (inactive)	2.79 µM (inactive)	12 µM (inactive)	4.76 µM (inactive)	> 76.6 µM (inactive)	8.69 µM (inactive)	4.49 µM (inactive)	8.99 µM (inactive)	> 51.1 µM (inactive)	3.99 µM (inactive)	19.6 µM (inactive)	6.71 µM (inactive)	3.98 µM (inactive)
